Measured values from patent publication US20180353445A1, “METHODS AND COMPOSITIONS RELATING TO PROTEASOME INHIBITOR RESISTANCE” (Whitehead Institute for Biomedical Research, priority 2017, published 2018).

What was measured:
HepG2 cells = experiment: Cell viability assay (resazurin), HepG2 cells with shRNA knockdown of proteasome subunits vs control; type: cell-based, human
Text: FIGS. 2A-2F: Reducing expression of 19S subunits increases the levels of active 20S proteasomes and protects cancer cells from proteasome (FIG. 2A) HepG2 cells were infected with 80 shRNAs targeting 20 different subunits of the proteasome and 10 control shRNAs. Infected cells were then exposed to […] bortezomib and cell number was examined 4 days later. The plot represents the average (+/−SEM) of four different hairpins targeting the indicated proteasome subunits and their relative cell number following bortezomib treatment. 19S subunits are depicted with orange bars, the control with a blue bar and 20S subunits with green bars. […] (FIG. 2C) The relative cell number of cells harboring a control shLacZ or each of 4 individual shRNAs targeting shPSMD2 was analyzed 4 days after addition of the indicated concentrations of bortezomib. (FIG. 2D) HepG2 cells stably expressing four different shRNAs targeting the PSMD2 subunit and a control shRNA (lacZ) were analyzed by western blot for the indicated proteins 24 hours with or without bortezomib treatment. […] Proteasome complex levels were detected by immunoblot analysis and 20S proteasome activity by measuring the hydrolysis of Suc-LLVY-AMC by substrate overlay assays. * p<0.05 **p<0.01. […]

FDX1 [1] = molecular target: T1, FDX1 (Homo sapiens, UniProt P10109); experiment: Electron transfer assay, reduced FDX1 to SDA complex; type: biochemical; settings: upon addition of cysteine
T1 construct: made in house
T1 sequence (P10109 62-184): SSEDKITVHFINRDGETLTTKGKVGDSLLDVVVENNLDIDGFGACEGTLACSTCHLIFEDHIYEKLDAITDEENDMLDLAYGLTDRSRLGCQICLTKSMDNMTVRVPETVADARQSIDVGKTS
Text: Fe—S clusters are generated from sulfur extracted from cysteine by the iron sulfur-cluster (ISC) core complex (NFS1-ISD11-Acp-ISCU)2 and iron. A reductant (FDX1 or FDX2) is required for Fc-S cluster biosynthesis (Lill and Muhlenhoff, 2006; Py and Barras, 2010) (FIG. 53A). To investigate the effect of elesclomol on mitochondrial Fe—S cluster biosynthesis, we utilized in vitro Fe—S cluster assembly assays. […] As further confirmation, we examined the effect of elesclomol on electron transfer from reduced FDX1 to the ISC core complex upon the addition of cysteine.
Electron transfer assay—Electron transfer from re-FDX1 SDA complex was monitored as follows. 25 μM reduced FDX1 was mixed with 25 μM SDA, and 125 μM L-cysteine was added to initiate the reaction. To test the effect of the drug, samples contained 25-500 μM elesclomol (1-20× relative to FDX1). Samples were then transferred to 1 cm path-length quartz cuvettes, sealed with rubber septa, and UV/vis spectra were collected at 25° C. The growth of absorbance at 456 nm was used to monitor the oxidation of reduced FDX1 as a result of electron transfer to SDA.

cancer cells = experiment: Cell viability, elesclomol and elesclomol analogs (cell titer-glo); type: cell-based; settings: across a variety of tumor types
Text: In addition to the intrinsic sensitivity of certain cancer cells to elesclomol, as our drug screen indicated, the sensitivity of cancer cells to elesclomol can be further enhanced by forcing them into a Hi-OXPHOS state.
We examined several elesclomol analogs (FIG. 57B) to determine the structural features that are important for mediating its cytotoxicity. […] Substitution of oxygen for even one of the sulfur groups (compound-5) reduced the activity of elesclomol by 300 fold. The loss of activity was even more pronounced (>>300 fold) when both sulfurs were substituted (compound-6) (FIGS. 51C-51D, FIG. 57C). Various other modifications to the elesclomol scaffold were tolerated, as long as the core sulfur geometry remained intact.
Cell viability—where indicated relative cell number following different drug treatment was conducted by plating cells at 1000 cells/well in 384 well plates. Indicated concentrations of compounds were added 24 hour after plating at least in triplicate for each condition. Viability was measured 72 hours after drug addition using cell titer-glo (Promega) according to manufactures protocol. […]

FDX1 [2] = molecular target: T1, FDX1; experiment: Electron transfer from reduced FDX1 to the cysteine desulfurase complex; type: biochemical; settings: upon addition of cysteine
FDX1 [3] = molecular target: T1, FDX1; experiment: NMR titration of elesclomol against [U-15N]-FDX1 (2D 1H,15N TROSY-HSQC); type: binding
Method: Most of these residues map to the α2, α3 helices and the β5 strand within the FDX1 structure (FIG. 53E).
NMR Spectroscopy—NMR spectra were collected at the National Magnetic Resonance Facility at Madison on a 750 MHz (^1H) Balker with a z-gradient cryogenic probe. The buffer used for NMR samples (HNT buffer) contained 20 mM HEPES at pH 7.6, 150 mM NaCl, and 2 mM TCEP. All sample temperatures were regulated at 25° C. NMRPipe software (Delaglio et al., 1995) was used to process the raw NMR data and NMRFAM-SPARKY (Lee et al., 2015) software was utilized to visualize and analyze the processed NMR data.
To study the interactions of FDX1 with elesclomol, 0.2 mM [U-^15N]-FDX1 in HNT buffer were placed in 5 mm Shigemi NMR tubes, and 2D ^1H,^15N TROSY-HSQC spectra were collected before and after titration of 5 equivalent molar ratio of elesclomol dissolved in HNT buffer.
Chemical shift perturbations (ΔδHN absolute value ppm) were calculated by
where Δ67 H and ΔδN are the chemical shift changes in the ^1H and ^15N dimensions, respectively.

Row | SMILES | proliferation of control cells (HepG2 cells; 12 nM, control HepG2 cells) | increase of EC50 values in cell lines with shRNA-reduced PSMD2 vs parental line (HepG2 cells; HepG2, four shRNAs targeting PSMD2, 4 days) | inhibition of electron transfer from reduced FDX1 to the NFS1 component of the ISC core complex (FDX1 [1]) | inhibition of cancer cell growth (cancer cells) | electron transfer from reduced FDX1 to the cysteine desulfurase complex (FDX1 [2]) | binding to FDX1 by NMR (FDX1 [3]; 0.2 mM [U-15N]-FDX1, 5 equivalent molar ratio of elesclomol) | chemical shift perturbation (Δδ) of the most affected FDX residues (FDX1 [3]; I58-F59, D61, K66, D68, A69, D72-D76, L84, T104-R106) [ppm]
1 | CC(C)C[C@H](NC(=O)[C@H](Cc1ccccc1)NC(=O)c1cnccn1)B(O)O [bortezomib] | completely inhibited | three to six-fold | – | – | – | – | –
2 | CN(NC(=O)CC(=O)NN(C)C(=S)c1ccccc1)C(=S)c1ccccc1 [elesclomol] | – | – | progressive inhibition of electron transfer | potent inhibitor of cancer cell growth | inhibits electron transfer | directly binds FDX1 | > 0.01
